Laboratory results as given in ChEMBL document CHEMBL1201862, “PubChem BioAssay data set” (2004).
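Where inhibition never reached the appropriate level, the endpoint shown equals the highest concentration tested. Otherwise, values were interpolated linearly from a five-concentration, 48-hour dose response in 96-well plates. GI50 is the concentration that inhibits growth by half.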 Active and inactive are the calls of the source. No stated cut-off is given here; in the data, active = GI50 up to about 1.1 µM and inactive = higher.

How the values were obtained:
Assay in all cases: NCI anticancer screen, dose series, 48 h
786-0 = system: 786-0
BT-549 = system: BT-549
DU-145 = system: DU-145
EKVX = system: EKVX
HCC 2998 = system: HCC 2998
HCT-15 = system: HCT-15
HL-60 = system: HL-60
HOP-92 = system: HOP-92
K562 = system: K562
MDA-MB-231 = system: MDA-MB-231
Malme-3M = system: Malme-3M
NCI-H460 = system: NCI-H460
NCI/ADR-RES = system: NCI/ADR-RES
OVCAR-8 = system: OVCAR-8
RXF 393 = system: RXF 393
SK-MEL-28 = system: SK-MEL-28
SK-MEL-5 = system: SK-MEL-5
SW-620 = system: SW-620
T47D = system: T47D
UACC-62 = system: UACC-62

Compound	GI50 (786-0)	GI50 (BT-549)	GI50 (DU-145)	GI50 (EKVX)	GI50 (HCC 2998)	GI50 (HCT-15)	GI50 (HL-60)	GI50 (HOP-92)	GI50 (K562)	GI50 (MDA-MB-231)	GI50 (Malme-3M)	GI50 (NCI-H460)	GI50 (NCI/ADR-RES)	GI50 (OVCAR-8)	GI50 (RXF 393)	GI50 (SK-MEL-28)	GI50 (SK-MEL-5)	GI50 (SW-620)	GI50 (T47D)	GI50 (UACC-62)
Cc1cccc2c(N)c3cccc(C(=O)NCC[N+]4(Cc5ccc([N+](=O)[O-])cc5)CCOCC4)c3nc12	12.8 µM (inactive)	47.5 µM (inactive)	27.3 µM (inactive)	36.2 µM (inactive)	12.3 µM (inactive)	45.1 µM	18.2 µM (inactive)	22.4 µM (inactive)	16 µM (inactive)	> 60.1 µM (inactive)	29.4 µM (inactive)	14.6 µM (inactive)	> 95.1 µM (inactive)	30.4 µM (inactive)	62.2 µM (inactive)	49.7 µM (inactive)	53.5 µM (inactive)	44.2 µM (inactive)	29.2 µM (inactive)	> 51.4 µM (inactive)
CCOc1ccc2c(c1)C(/C(C(Cl)=C(Cl)Cl)=[N+](/[O-])OC(=O)c1ccccc1)=N2	72.4 µM (inactive)	25.4 µM (inactive)	47.2 µM (inactive)	15.4 µM (inactive)	59.2 µM (inactive)	50.2 µM	33.7 µM (inactive)	38.1 µM (inactive)	38.7 µM (inactive)	45.7 µM (inactive)	> 100 µM (inactive)	76 µM (inactive)	57.3 µM (inactive)	72.8 µM (inactive)	47.8 µM (inactive)	> 100 µM (inactive)	35.3 µM (inactive)	65.8 µM (inactive)	26 µM (inactive)	77.6 µM (inactive)
Nc1cc2nc(O)c(O)nc2cc1N	> 100 µM (inactive)	> 100 µM (inactive)	> 100 µM (inactive)	> 100 µM (inactive)	> 100 µM (inactive)	> 100 µM	> 100 µM (inactive)	> 100 µM (inactive)	> 100 µM (inactive)	> 100 µM (inactive)	> 100 µM (inactive)	> 100 µM (inactive)	> 100 µM (inactive)	> 100 µM (inactive)	> 100 µM (inactive)	> 100 µM (inactive)	> 100 µM (inactive)	> 100 µM (inactive)	> 100 µM (inactive)	> 100 µM (inactive)
CCc1ccc(/C=C\c2cc(OC)c(OC)c(OC)c2)cc1	< 0.0196 µM (active)	0.18 µM (active)	0.0303 µM (active)	0.887 µM (active)	0.0492 µM (active)	0.0449 µM	0.0053 µM (active)	0.00813 µM (active)	0.00845 µM (active)	0.144 µM (active)	0.124 µM (active)	0.0235 µM (active)	0.00286 µM (active)	0.0456 µM (active)	0.00908 µM (active)	0.0627 µM (active)	0.0181 µM (active)	0.00897 µM (active)	0.17 µM (active)	0.0132 µM (active)
O=[As]O	> 57.3 µM (inactive)	41.3 µM (inactive)	> 100 µM (inactive)	> 60 µM (inactive)	> 100 µM (inactive)	> 52.5 µM	9.82 µM (inactive)	> 41.6 µM (inactive)	37.7 µM (inactive)	> 100 µM (inactive)	25.3 µM (inactive)	> 100 µM (inactive)	> 100 µM (inactive)	> 43.8 µM (inactive)	> 32.9 µM (inactive)	> 59 µM (inactive)	32.4 µM (inactive)	> 64.1 µM (inactive)	> 100 µM (inactive)	> 39.1 µM (inactive)
